According to patent US20260183275A1, “SUBSTITUTED QUINOLONE COMPOUNDS USEFUL AS INHIBITORS OF TLR9” (Bristol-Myers Squibb Company, priority 2022, published 2026):

Assays:
Type in all cases: cell-based
human TLR8 = target: T1, human TLR8 (Homo sapiens, UniProt Q9NR97); assay: TLR8 inhibition reporter assay (HEK-Blue cells, SEAP reporter); conditions: HEK-Blue cells overexpressing human TLR8; stimulated with R848 15.9 μM; SEAP read after 22 hour; dose range 0.05 nM-50 μM
T1 construct: host or cells: HEK-Blue cells
T1 sequence (Q9NR97 27-1041): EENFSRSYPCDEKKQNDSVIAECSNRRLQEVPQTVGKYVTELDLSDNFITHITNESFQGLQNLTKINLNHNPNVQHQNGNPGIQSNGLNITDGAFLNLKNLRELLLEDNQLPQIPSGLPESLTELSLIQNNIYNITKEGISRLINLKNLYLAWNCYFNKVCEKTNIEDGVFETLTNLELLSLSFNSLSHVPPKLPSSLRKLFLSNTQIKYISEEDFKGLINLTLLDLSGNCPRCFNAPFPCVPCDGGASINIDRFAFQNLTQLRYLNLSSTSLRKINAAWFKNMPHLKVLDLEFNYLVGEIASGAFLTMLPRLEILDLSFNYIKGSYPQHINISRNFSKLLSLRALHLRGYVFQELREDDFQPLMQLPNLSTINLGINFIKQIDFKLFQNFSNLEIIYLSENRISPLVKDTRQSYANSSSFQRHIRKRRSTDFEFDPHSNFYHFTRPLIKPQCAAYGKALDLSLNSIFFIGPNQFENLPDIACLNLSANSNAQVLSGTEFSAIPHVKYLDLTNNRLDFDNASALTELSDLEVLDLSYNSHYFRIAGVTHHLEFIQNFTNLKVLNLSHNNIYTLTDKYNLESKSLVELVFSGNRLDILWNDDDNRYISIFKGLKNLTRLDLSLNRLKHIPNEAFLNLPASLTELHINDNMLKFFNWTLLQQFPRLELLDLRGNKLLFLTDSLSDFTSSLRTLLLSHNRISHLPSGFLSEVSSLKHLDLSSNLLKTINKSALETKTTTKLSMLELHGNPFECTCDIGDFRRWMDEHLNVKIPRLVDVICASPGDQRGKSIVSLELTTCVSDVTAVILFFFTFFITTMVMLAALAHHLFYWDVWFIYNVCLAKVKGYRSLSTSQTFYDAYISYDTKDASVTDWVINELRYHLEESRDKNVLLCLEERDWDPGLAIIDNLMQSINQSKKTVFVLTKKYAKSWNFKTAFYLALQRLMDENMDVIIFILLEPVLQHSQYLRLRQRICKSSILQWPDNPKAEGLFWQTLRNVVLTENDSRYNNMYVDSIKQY
Procedure: (§1) HEK-Blue™-cells (Invivogen) overexpressing human TLR7, TLR8 or TLR9 receptors were used for screening inhibitors of these receptors using an inducible SEAP (secreted embryonic alkaline phosphatase) reporter gene under the control of the IFN-β minimal promoter fused to five NF-κB and AP-1-binding sites. Briefly, cells are seeded into Greiner 384 well plates (15000 cells per well for TLR7, 20,000 for TLR8 and 25,000 for TLR9) and then treated with test compounds in DMSO to yield a final dose response concentration range of 0.05 nM-50 μM. After a 30 minute compound pre-treatment at room temperature, the cells are then stimulated with a TLR7 ligand (gardiquimod at a final concentration of 7.5 μM), TLR8 ligand (R848 at a final concentration of 15.9 μM) or TLR9 ligand (ODN2006 at a final concentration of 5 nM) to activate NF-κB and AP-1 which induce the production of SEAP. After a 22 hour incubation at 37° C., 5% CO2, SEAP levels are determined with the addition of HEK-Blue™ Detection reagent (Invivogen), a cell culture medium that allows for detection of SEAP, according to manufacturer's specifications. The percent inhibition is determined as the % reduction in the HEK-Blue signal present in wells treated with agonist plus DMSO alone compared to wells treated with a known inhibitor.

human TLR7 = target: T2, human TLR7 (Homo sapiens, UniProt Q9NYK1); assay: TLR7 inhibition reporter assay (HEK-Blue cells, SEAP reporter); conditions: HEK-Blue cells overexpressing human TLR7; stimulated with gardiquimod 7.5 μM; SEAP read after 22 hour; dose range 0.05 nM-50 μM
T2 construct: host or cells: HEK-Blue cells
T2 sequence (Q9NYK1 27-1049): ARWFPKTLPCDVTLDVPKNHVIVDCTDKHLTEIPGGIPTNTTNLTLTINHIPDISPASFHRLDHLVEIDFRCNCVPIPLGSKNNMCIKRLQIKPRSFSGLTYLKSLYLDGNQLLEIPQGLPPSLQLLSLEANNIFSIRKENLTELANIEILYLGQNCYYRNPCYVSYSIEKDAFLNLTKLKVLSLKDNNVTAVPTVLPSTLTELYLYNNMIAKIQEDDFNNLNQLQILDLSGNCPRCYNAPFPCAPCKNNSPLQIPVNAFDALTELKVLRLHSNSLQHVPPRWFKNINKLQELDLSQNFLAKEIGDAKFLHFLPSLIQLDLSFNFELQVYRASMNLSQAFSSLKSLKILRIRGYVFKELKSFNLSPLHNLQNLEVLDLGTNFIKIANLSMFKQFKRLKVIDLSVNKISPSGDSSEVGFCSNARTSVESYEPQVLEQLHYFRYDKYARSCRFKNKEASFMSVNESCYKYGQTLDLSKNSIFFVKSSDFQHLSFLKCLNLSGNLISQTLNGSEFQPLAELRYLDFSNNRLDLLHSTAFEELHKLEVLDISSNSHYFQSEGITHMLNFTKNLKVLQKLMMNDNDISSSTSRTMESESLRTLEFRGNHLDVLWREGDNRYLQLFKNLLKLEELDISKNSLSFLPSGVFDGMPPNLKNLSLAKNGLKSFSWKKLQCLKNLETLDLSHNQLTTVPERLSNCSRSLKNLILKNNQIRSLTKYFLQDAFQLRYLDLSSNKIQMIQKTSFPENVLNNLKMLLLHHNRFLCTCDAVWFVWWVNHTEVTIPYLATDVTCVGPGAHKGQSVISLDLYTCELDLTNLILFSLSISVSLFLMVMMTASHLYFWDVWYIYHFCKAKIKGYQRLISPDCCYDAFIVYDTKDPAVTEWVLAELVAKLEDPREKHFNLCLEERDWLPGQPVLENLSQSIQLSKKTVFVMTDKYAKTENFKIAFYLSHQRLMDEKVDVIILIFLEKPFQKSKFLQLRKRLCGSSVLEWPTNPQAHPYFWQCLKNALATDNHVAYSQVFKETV
Procedure: as §1

human TLR9 = target: T3, human TLR9 (Homo sapiens, UniProt Q9NR96); assay: TLR9 inhibition reporter assay (HEK-Blue cells, SEAP reporter); conditions: HEK-Blue cells overexpressing human TLR9; stimulated with ODN2006 5 nM; SEAP read after 22 hour; dose range 0.05 nM-50 μM
T3 construct: host or cells: HEK-Blue cells
T3 sequence (Q9NR96 26-1032): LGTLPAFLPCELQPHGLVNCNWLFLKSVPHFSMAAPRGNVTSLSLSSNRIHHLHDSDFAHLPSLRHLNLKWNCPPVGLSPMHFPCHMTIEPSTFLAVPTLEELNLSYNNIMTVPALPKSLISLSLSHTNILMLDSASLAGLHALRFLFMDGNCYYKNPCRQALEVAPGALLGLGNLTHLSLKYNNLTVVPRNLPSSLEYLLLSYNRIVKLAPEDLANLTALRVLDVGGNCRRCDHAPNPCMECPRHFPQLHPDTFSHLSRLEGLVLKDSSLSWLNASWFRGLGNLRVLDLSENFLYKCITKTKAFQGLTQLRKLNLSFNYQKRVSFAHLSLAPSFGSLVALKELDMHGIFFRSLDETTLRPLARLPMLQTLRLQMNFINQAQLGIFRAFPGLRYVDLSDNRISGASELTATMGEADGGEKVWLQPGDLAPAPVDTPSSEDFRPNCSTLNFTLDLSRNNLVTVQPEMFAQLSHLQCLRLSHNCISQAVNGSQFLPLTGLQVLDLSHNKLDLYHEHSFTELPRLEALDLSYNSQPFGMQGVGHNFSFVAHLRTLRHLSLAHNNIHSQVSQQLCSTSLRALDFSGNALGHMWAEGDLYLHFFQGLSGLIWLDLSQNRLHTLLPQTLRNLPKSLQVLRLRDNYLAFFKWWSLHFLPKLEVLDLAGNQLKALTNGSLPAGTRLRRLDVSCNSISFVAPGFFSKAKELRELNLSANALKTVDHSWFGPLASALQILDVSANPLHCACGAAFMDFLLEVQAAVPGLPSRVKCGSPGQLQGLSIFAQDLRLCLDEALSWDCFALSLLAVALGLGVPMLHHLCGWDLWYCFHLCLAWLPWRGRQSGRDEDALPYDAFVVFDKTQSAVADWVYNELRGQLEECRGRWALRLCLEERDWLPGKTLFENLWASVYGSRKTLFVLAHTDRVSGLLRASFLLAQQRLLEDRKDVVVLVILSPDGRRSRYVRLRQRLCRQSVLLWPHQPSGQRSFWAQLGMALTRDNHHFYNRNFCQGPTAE
Procedure: as §1

| Structure (SMILES) | IC50 (human TLR8) [nM] | IC50 (human TLR7) [nM] | IC50 (human TLR9) [nM] |
| --- | --- | --- | --- |
| CC(C)N1CCN(c2ccc(-c3ccc4[nH]c(=O)c(-c5ccc(F)cc5)cc4c3)cc2)CC1 [Example 31, 3-(4-fluorophenyl)-6-{4-[1-(propan-2-yl)piperazin-1-yl]phenyl}-1,2-dihydroquinolin-2-one] | 16700 | 42600 | 286 |
| CC(C)N1CCN(c2ccc(-c3ccc4[nH]c(=O)c(-c5nn(C)c6ccccc56)cc4c3)cc2)CC1 [Example 35, 3-(1-methyl-1H-indazol-3-yl)-6-{4-[4-(propan-2-yl)piperazin-1-yl]phenyl}-1,2-dihydroquinolin-2-one] | 14100 | 1290 | 314 |
| CC(C)N1CCN(c2ccc(-c3ccc4[nH]c(=O)c(-c5ccc(OC(F)F)cc5)cc4c3)cc2)CC1 [Example 36, 3-[4-(difluoromethoxy)phenyl]-6-{4-[4-(propan-2-yl)piperazin-1-yl]phenyl}-1,2-dihydroquinolin-2-one] | ≥ 50000 | ≥ 50000 | 344 |
| CC(C)N1CCN(c2ccc(-c3ccc4[nH]c(=O)c(-c5c(Cl)cccc5Cl)cc4c3)cc2)CC1 [Example 37] | ≥ 50000 | 5560 | 367 |
| CC(C)N1CCN(c2ccc(-c3ccc4[nH]c(=O)c(-c5ccc(Cl)cc5Cl)cc4c3)cc2)CC1 [Example 38, 3-(2,4-dichlorophenyl)-6-{4-[4-(propan-2-yl)piperazin-1-yl]phenyl}-1,2-dihydroquinolin-2-one] | ≥ 50000 | 8880 | 376 |
| CC(C)N1CCN(c2ccc(-c3ccc4[nH]c(=O)c(-c5ccc(Cl)cc5)cc4c3)cc2)CC1 [Example 39, 3-(4-chlorophenyl)-6-{4-[4-(propan-2-yl)piperazin-1-yl]phenyl}-1,2-dihydroquinolin-2-one] | ≥ 50000 | ≥ 50000 | 387 |
| CC(C)N1CCN(c2ccc(-c3ccc4[nH]c(=O)c(-c5c(F)c(F)c(F)c(F)c5F)cc4c3)cc2)CC1 [Example 40, 3-(2,3,4,5,6-pentafluorophenyl)-6-{4-[4-(propan-2-yl)piperazin-1-yl]phenyl}-1,2-dihydroquinolin-2-one] | ≥ 50000 | ≥ 50000 | 399 |
| CC(C)N1CCN(c2ccc(-c3ccc4[nH]c(=O)c(-c5c(F)cc(F)cc5F)cc4c3)cc2)CC1 [Example 41, 6-{4-[4-(propan-2-yl)piperazin-1-yl]phenyl}-3-(2,4,6-trifluorophenyl)-1,2-dihydroquinolin-2-one] | ≥ 50000 | 4770 | 411 |

Now those with a lower IC50 (human TLR8), led by results:

| IC50 (human TLR8) [nM] | IC50 (human TLR7) [nM] | IC50 (human TLR9) [nM] | Structure (SMILES) |
| --- | --- | --- | --- |
| 1830 | 5860 | 275 | CC(C)N1CCN(c2ccc(-c3ccc4[nH]c(=O)c(-c5ccccc5NS(C)(=O)=O)cc4c3)cc2)CC1 [Example 29, N-[2-(2-oxo-6-{4-[4-(propan-2-yl)piperazin-1-yl]phenyl}-1,2-dihydroquinolin-3-yl)phenyl]methanesulfonamide] |
| 5220 | 2160 | 277 | COc1cccc(-c2cc3cc(-c4ccc(N5CCN(C(C)C)CC5)cc4)ccc3[nH]c2=O)c1 [Example 30, 3-(3-methoxyphenyl)-6-{4-[4-(propan-2-yl)piperazin-1-yl]phenyl}-1,2-dihydroquinolin-2-one] |
| 17 | 418 | 293 | CC(C)N1CCN(c2ccc(-c3ccc4[nH]c(=O)c(-c5cccnc5)cc4c3)cc2)CC1 [Example 32, 6-{4-[4-(propan-2-yl)piperazin-1-yl]phenyl}-3-(pyridin-3-yl)-1,2-dihydroquinolin-2-one] |
| 4700 | 2230 | 300 | CC(C)N1CCN(c2ccc(-c3ccc4[nH]c(=O)c(-c5ccccc5C(F)(F)F)cc4c3)cc2)CC1 [Example 33, 6-{4-[4-(propan-2-yl)piperazin-1-yl]phenyl}-3-[2-(trifluoromethyl)phenyl]-1,2-dihydroquinolin-2-one] |
| 2470 | 2140 | 427 | CC(C)N1CCN(c2ccc(-c3ccc4[nH]c(=O)c(-c5ccccc5F)cc4c3)cc2)CC1 [Example 42, 3-(2-fluorophenyl)-6-{4-[4-(propan-2-yl)piperazin-1-yl]phenyl}-1,2-dihydroquinolin-2-one] |
